How the values were obtained:
Format in all cases: in vivo
[1] = tested on: homozygous mutant dopamine transporter knockout (KO) mice; test: Spontaneous activity in the open field, dopamine transporter KO mice; conditions: single SC injection, test compound 10, 30, 100 mg/kg, amphetamine 2 mg/kg, 90 min post-injection, relative to vehicle
Protocol: Male and female wild-type and homozygous mutant dopamine transporter KO mice (n˜10 mice/genotype/agent; produced by in vivo homologous recombination and bred at Duke University Medical Center, Durham, N.C.) were tested for spontaneous activity in the open field following a single injection of the vehicle or compound. […] All drugs were given in a volume of 5 mL/kg. Animals were returned to the open field for an additional 90 min. Spontaneous activity was evaluated in an automated Omnitech Digiscan apparatus (Accuscan Instruments, Columbus, Ohio). Activity was summated at 5 min intervals over the 2 h period of testing. Horizontal activity or locomotion was measured in terms of the total distance covered in cm, vertical activity or rearing was expressed in terms of the total numbers of vertical beam breaks, and stereotypy was quantified in terms of repetitive breaks of a given beam or beams with intervals of less than 1 sec. For the analyses, 10 WT and 10 KO mice were run in each of the treatment groups with approximately equal numbers of males and females assigned to each group. Data were analyzed by the Statistical Package for Social Sciences programs (version 11.0 for Windows; SPSS Science, Chicago, Ill.). The results for each dependent variable were analyzed by repeated analyses of variance (RMANOVA) for within subjects effects (group differences over time) and between-subjects effects (tests of main effects and interactions). Bonferroni corrected pair-wise comparisons were used as the post-hoc tests. A p <0.05 was considered significant.

wild-type mice = test: Spontaneous activity in the open field, wild-type mice; conditions: WT mice; amphetamine 2 mg/kg SC; relative to vehicle
Protocol: Male and female wild-type and homozygous mutant dopamine transporter KO mice (n˜10 mice/genotype/agent; produced by in vivo homologous recombination and bred at Duke University Medical Center, Durham, N.C.) were tested for spontaneous activity in the open field following a single injection of the vehicle or compound. Mice were placed into the open field for 30 min and administered SC the vehicle (sterile water), 2 mg/kg amphetamine, or three concentrations of the test compound (10, 30, 100 mg/kg). All drugs were given in a volume of 5 mL/kg. Animals were returned to the open field for an additional 90 min. Spontaneous activity was evaluated in an automated Omnitech Digiscan apparatus (Accuscan Instruments, Columbus, Ohio). […] Horizontal activity or locomotion was measured in terms of the total distance covered in cm, vertical activity or rearing was expressed in terms of the total numbers of vertical beam breaks, and stereotypy was quantified in terms of repetitive breaks of a given beam or beams with intervals of less than 1 sec. […] Data were analyzed by the Statistical Package for Social Sciences programs (version 11.0 for Windows; SPSS Science, Chicago, Ill.). The results for each dependent variable were analyzed by repeated analyses of variance (RMANOVA) for within subjects effects (group differences over time) and between-subjects effects (tests of main effects and interactions). […]

[2] = tested on: adult human subjects with moderate or severe major depression without psychotic features; test: Randomized double-blind placebo- and active-controlled 6-week study in major depression; conditions: paroxetine 20 mg/day; for MADRS response rate / MADRS remission rate: Week 6; for MADRS response rate: >50% improvement in MADRS total score; for MADRS remission rate: MADRS total score less than 9
Protocol: The primary objective of this study was to determine the efficacy of 2 target doses of test compound (200 and 400 mg/day) in comparison with placebo during 6 weeks of treatment in adult human subjects with moderate or severe major depression without psychotic features. An active comparator (paroxetine) was included to assist in distinguishing a negative study from a failed study. In addition, an exit interview was intended to gather information on unexpected benefits of the test compound in order to refine the clinical development program. […] In addition, positive effects of the test compound on ratings of physical energy/fitness, reduction in sadness or depression and mental energy or motivation.
This was a randomized, double-blind, parallel-group, active, and placebo-controlled, multicenter study conducted in the U.S. (23 centers) and Canada (4 centers). There were 2 phases: a pretreatment phase (screening/washout and a baseline visit) and a 6-week, double-blind treatment phase. Paroxetine, a positive control, was included to evaluate assay sensitivity. After washout (if needed) of prohibited substances, subjects were randomly assigned (1:1:1:1) to receive the test compound titrated to a target dose of 200 mg/day or 400 mg/day, matching placebo, or a fixed dose (20 mg/day) of paroxetine. Study drug was given twice daily for 6 weeks. Efficacy and safety were assessed weekly during the double-blind phase. Subjects completing the study underwent an Exit Interview (“Your Health and Well-Being”) and completed an Assessment of Benefits of Clinical-trial Drug-treatment (ABCD) questionnaire (U.S. sites only).

isolated mice = test: Isolation-induced fighting in mice; conditions: Mus musculus
Protocol: Male CD-1 mice (15-20 g) were utilized in this experiment. The test compound (15, 22 and 30 mg/kg) was dissolved in physiological saline (0.9%) and administered orally (PO) in a volume of 1 mL/100 g body weight.
Mice were isolated for up to 8 weeks in individual solid walled wire cages (24×20×17 cm). The animals were not disturbed except to replenish food. Aggression was tested by placing an intruder mouse into the home cage of the resident animal. Aggression was characterized by an attack on the “intruder” during a three minute period. […] Only those resident mice displaying fighting behavior were selected. […] ED50 values were calculated from the percent inhibition of fighting in computer program based on probit analysis.

[3] = ITT (LOCF), change from baseline at Week 6
[4] = Per-Protocol (LOCF), change from baseline at Week 6

Structure (SMILES): CC(N)Cc1ccccc1 (stereo not drawn) [Amphetamine, amphetamine, reference compound]
- spontaneous activity (locomotor, rearing and stereotypical activities) [1]: decreased them in KO animals
- spontaneous activity (locomotor, rearing and stereotypical activities) (wild-type mice): increased locomotor, rearing and stereotypical activities in WT mice

Structure (SMILES): Fc1ccc([C@@H]2CCNC[C@H]2COc2ccc3c(c2)OCO3)cc1 [Paroxetine, paroxetine, reference compound]
- MADRS response rate ([2]; ITT (LOCF)): 48%
- MADRS remission rate ([2]; ITT (LOCF)): 26%
- 3 Atypical items of HAM-D 31, mean result [2, 3]: −0.6
- CGI-S score, mean result [2, 3]: −1.5
- MADRS core mood subscale, mean result [2, 3]: −9.7
- MADRS sadness (Items 1 + 2), mean result [2, 3]: −3.9
- MADRS total score (primary), mean result [2, 3]: −14.1
- superiority to placebo on the primary endpoint (change from baseline at Week 6 in MADRS total score) ([2]; ITT (LOCF), test compound 200 mg and 400 mg): statistically significant superiority to placebo
- MADRS response rate ([2]; Per-Protocol (LOCF)): 60%
- MADRS remission rate ([2]; Per-Protocol (LOCF)): 35%
- CGI-S score, mean result [2, 4]: −1.9
- MADRS total score, mean result [2, 4]: −17.1
- ABCD questionnaire items with statistically significant superiority to placebo ([2]; post hoc analyses, of 51 items, U.S. sites): 14 items

Structure (SMILES): CN(C)CCCN1c2ccccc2CCc2ccccc21 [Imipramine, imipramine, reference compound]
- inhibition at 15 mg/kg (isolated mice; 1 h, 15 mg/kg PO, 60 min after dosing): 20%
- inhibition at 30 mg/kg (isolated mice; 1 h, 30 mg/kg PO, 60 min after dosing): 50%
- ED50 (isolated mice; PO, inhibition of isolation-induced fighting, probit analysis, read-out: ED50 (mg/kg, PO) (confidence limits)): ~30 mg/kg

— patent publication US9610274B2, “Methods for treating bipolar disorder” (priority 2010, dated 2017)
